Laboratory results taken from US20240140970A1, “A […], AND PREPARATION METHOD AND USE THEREOF” (ASCENTAWITS PHARMACEUTICALS, LTD., priority 2021, published 2024).
Values joined by “and” are separate entries in the source; they are usually repeats but may differ in a detail not shown here. Identical values can stand only once.

Test: Freeze/thaw stability of AST-2660 in human plasma (LC-MS/MS)
Format: in vitro ADME
Protocol: The detection method established in example 4 was used to detect the content of AST-2660 in the human plasma to be tested.
Matrix: the mixed normal human plasma containing anticoagulant (K2 EDTA) • a: the internal standard working solution: AST-2660-D8 was taken, added with methanol, and diluted to prepare a solution containing about 100 ng per 1 ml. • b: the solution to be tested (no internal standard compound was added to the solution to be tested at this time): it was obtained by taking a blood sample to be tested. • c: the standard working solution (no internal standard compound was added to the standard working solution at this time): an appropriate amount of AST-2660 was taken and accurately weighed, dissolved with methanol, and diluted to prepare a solution containing about 1.0 mg per 1 ml, which was used as the standard working stock solution. An appropriate amount of the standard working stock solution was taken, added with the matrix and diluted to prepare standard working solutions with different concentrations containing about 200 ng, 160 ng, 100 ng, 50 ng, 10 ng, 2.0 ng, 1.0 ng and 0.5 ng per 1 ml, respectively. (The solution was stored at −70° C.) • d: the quality control sample solution: an appropriate amount of AST-2660 was taken and accurately weighed, dissolved with methanol, and diluted to prepare a solution containing about 10 μg per 1 ml, which was used as the quality control working stock solution. An appropriate amount of the quality control working stock solution was taken, added with matrix to prepare quality control working solutions with different concentrations containing about 150 ng, 60 ng, 15 ng, 1.5 ng and 0.5 ng per 1 ml. (The solution was stored at −70° C.)
The solution to be tested, the standard working solution and the quality control sample solution were thawed at room temperature and mixed uniformly. 100 μl of the above solution was respectively taken, added with 20 μl of the internal standard and 500 μl of methanol, and vortexed for 3 minutes to mix uniformly, and then centrifuged for 10 minutes at 2143 rcf. 450 μl of the supernatant was taken and dried, and 150 μl of methanol was added for redissolution, and sonicated. Then the plates were centrifuged for 3 minutes at 4° C. It was obtained by taking […] of supernatant.
Liquid phase conditions: A SHARC 1, 3 μm, 2.1*50 mm or chromatograph column with equivalent performance was used; the mobile phase was a methanol solution comprising low content of ammonium acetate; the mobile phase B was acetonitrile; the gradient elution was performed according to the following table, column temperature: 20° C.; injection volume: 5 μl.
Mass spectrometric conditions: electrospray ion source with negative ion scanning mode; spray potential: −4500 V; ion source temperature: 500° C.; collision energy (CE): −22 eV; declustering potential (DP): −55V; entrance potential (EP): −10V; collision chamber exit potential (CXP): −16V; dwell time: 100 ms; high purity nitrogen was used for all gases; AST-2660 ions pairs: m/z 147.0→m/z 62.9; the internal standard AST-2660-D8 ion pairs: m/z 155.0→m/z 62.9.
The AST-2660 standard working solution, blank sample, zero concentration sample, sample solution to be tested and quality control sample solution with different concentrations after extraction were respectively taken and injected into LC-MS/MS for detection.
Calculation results: the relationship function y=f (x) of the ratio of the peak area of the AST-2660 to that of the internal standard was obtained from AST-2660 standard working solutions with different concentrations. The ratio of the peak area of the AST-2660 to that of the internal standard was determined from the solution to be tested after extraction, and substituted into the relationship function y=f (x) to calculate the concentration of the metabolite II in the solution to be tested.

[1] = DilQC (10-fold dilution) nominal 1500 ng/ml, 5 freeze/thaw cycles at −20° C.
[2] = DilQC (10-fold dilution) nominal 1500 ng/ml, 5 freeze/thaw cycles at −70° C.
[3] = QC1 nominal 1.50 ng/ml, 5 freeze/thaw cycles at −20° C.
[4] = QC1 nominal 1.50 ng/ml, 5 freeze/thaw cycles at −70° C.
[5] = QC4 nominal 150 ng/ml, 5 freeze/thaw cycles at −20° C.
[6] = QC4 nominal 150 ng/ml, 5 freeze/thaw cycles at −70° C.

O=P([O-])(N1CC1)N1CC1.[Na+] [AST-2660]
AST-2660 concentration, Mean value [1]: 1288 ng/mL
AST-2660 concentration, single replicates [1]: 1310 ng/ml (2×) and 1250 ng/ml and 1280 ng/ml
RE (%) vs nominal [1]: −14.2%
AST-2660 concentration, Mean value [2]: 1540 ng/mL
AST-2660 concentration, single replicates [2]: 1650 ng/ml and 1500 ng/ml (2×) and 1510 ng/ml
RE (%) vs nominal [2]: 2.7%
AST-2660 concentration, Mean value [3]: 1.13 ng/mL
AST-2660 concentration, single replicates [3]: 1.13 ng/mL and 1.18 ng/mL and 1.14 ng/mL and 1.06 ng/mL
RE (%) vs nominal [3]: −24.8%
AST-2660 concentration, Mean value [4]: 1.60 ng/mL
AST-2660 concentration, single replicates [4]: 1.69 ng/mL and 1.72 ng/mL and 1.47 ng/mL and 1.51 ng/mL
RE (%) vs nominal [4]: 6.5%
AST-2660 concentration, Mean value [5]: 140 ng/mL
AST-2660 concentration, single replicates [5]: 136 ng/mL and 138 ng/mL and 152 ng/mL and 132 ng/mL
RE (%) vs nominal [5]: −7.0%
AST-2660 concentration, Mean value [6]: 149 ng/mL
AST-2660 concentration, single replicates [6]: 145 ng/ml and 148 ng/ml (2×) and 154 ng/ml
RE (%) vs nominal [6]: −0.8%
change of AST-2660 content (in words) (freeze-thaw process from −20° C. to room temperature): reduced significantly
change of AST-2660 content (in words) (freeze-thaw process from −70° C. to room temperature): almost no reduction
